Columns and labels:
Assay in all cases: Glycosidase inhibition, spectrophotometric p-nitrophenyl glycoside assay
[1] = biological target: α-Glucosidase from Saccharomyces cerevisiae (Saccharomyces cerevisiae, UniProt P53341); details: pH 7.2, read-out: Percentage inhibition (%) at 1 mM concentration of the inhibitor
[2] = test system: β-Glucosidase from almonds; details: 1 mM inhibitor; 37 °C, 30 min; NI = no inhibition up to 20 mM
[3] = test system: β-Mannosidase from Helix pomatia
[4] = biological target: T1, α-Mannosidase from jack bean (Canavalia ensiformis, UniProt C0HJB3); details: for inhibition at 1000 µM: pH 4.5, read-out: Percentage inhibition (%) at 1 mM concentration of the inhibitor
T1 sequence (C0HJB3 1-981): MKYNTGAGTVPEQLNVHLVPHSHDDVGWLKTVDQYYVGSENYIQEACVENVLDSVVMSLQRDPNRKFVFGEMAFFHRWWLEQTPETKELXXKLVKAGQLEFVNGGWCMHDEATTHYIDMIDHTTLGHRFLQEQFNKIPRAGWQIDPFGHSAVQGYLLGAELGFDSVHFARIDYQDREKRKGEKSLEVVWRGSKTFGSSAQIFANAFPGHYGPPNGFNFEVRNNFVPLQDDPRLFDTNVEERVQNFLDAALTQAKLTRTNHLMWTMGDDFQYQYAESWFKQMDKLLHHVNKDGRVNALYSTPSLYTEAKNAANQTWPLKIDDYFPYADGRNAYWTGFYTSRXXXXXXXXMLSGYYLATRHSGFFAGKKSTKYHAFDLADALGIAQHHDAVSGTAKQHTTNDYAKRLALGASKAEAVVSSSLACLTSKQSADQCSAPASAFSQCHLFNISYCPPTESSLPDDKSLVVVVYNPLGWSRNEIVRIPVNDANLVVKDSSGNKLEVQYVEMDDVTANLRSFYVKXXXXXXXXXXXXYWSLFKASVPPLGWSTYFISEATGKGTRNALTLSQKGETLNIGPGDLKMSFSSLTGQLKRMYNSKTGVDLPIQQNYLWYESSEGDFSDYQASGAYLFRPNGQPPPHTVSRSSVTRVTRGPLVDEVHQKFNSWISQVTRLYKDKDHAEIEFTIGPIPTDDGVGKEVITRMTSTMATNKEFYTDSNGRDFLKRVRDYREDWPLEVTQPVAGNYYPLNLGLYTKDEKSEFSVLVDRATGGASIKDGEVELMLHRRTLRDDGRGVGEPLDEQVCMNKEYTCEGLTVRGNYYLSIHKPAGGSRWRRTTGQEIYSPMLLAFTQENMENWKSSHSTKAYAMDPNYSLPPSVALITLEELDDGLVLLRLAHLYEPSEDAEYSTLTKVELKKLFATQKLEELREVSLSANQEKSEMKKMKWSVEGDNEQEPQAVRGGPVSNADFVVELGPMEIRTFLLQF

[5] = biological target: α-Galactosidase from green coffee beans (Coffea arabica, UniProt Q42656)
[6] = biological target: T2, β-Galactosidase from Aspergillus oryzae (Aspergillus oryzae, UniProt Q2UCU3)
T2 sequence (Q2UCU3 19-1005): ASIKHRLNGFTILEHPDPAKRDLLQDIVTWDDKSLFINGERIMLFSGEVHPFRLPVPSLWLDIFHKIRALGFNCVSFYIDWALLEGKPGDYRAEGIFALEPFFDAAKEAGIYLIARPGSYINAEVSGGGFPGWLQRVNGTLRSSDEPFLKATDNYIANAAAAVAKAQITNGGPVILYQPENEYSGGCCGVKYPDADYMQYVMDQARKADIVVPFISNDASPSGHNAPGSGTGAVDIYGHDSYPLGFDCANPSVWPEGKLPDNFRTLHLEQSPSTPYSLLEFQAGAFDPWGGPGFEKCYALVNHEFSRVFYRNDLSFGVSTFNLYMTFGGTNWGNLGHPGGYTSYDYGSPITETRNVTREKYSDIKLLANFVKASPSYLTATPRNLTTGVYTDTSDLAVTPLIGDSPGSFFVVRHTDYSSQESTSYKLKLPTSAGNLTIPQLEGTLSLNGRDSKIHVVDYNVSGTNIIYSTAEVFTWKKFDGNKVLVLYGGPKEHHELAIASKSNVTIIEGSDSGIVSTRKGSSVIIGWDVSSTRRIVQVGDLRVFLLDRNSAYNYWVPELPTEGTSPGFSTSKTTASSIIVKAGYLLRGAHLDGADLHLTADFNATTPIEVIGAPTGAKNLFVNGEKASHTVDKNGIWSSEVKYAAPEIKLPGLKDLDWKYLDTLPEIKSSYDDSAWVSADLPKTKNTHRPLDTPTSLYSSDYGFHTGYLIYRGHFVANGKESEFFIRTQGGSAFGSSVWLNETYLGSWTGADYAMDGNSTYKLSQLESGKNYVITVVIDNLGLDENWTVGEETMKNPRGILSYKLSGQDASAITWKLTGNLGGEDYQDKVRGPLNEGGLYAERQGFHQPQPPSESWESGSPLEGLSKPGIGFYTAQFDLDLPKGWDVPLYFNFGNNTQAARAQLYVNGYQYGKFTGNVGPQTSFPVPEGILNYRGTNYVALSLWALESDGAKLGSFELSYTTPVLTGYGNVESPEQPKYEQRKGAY

Chain of α-Glucosidase from Saccharomyces cerevisiae (P53341 whole entry): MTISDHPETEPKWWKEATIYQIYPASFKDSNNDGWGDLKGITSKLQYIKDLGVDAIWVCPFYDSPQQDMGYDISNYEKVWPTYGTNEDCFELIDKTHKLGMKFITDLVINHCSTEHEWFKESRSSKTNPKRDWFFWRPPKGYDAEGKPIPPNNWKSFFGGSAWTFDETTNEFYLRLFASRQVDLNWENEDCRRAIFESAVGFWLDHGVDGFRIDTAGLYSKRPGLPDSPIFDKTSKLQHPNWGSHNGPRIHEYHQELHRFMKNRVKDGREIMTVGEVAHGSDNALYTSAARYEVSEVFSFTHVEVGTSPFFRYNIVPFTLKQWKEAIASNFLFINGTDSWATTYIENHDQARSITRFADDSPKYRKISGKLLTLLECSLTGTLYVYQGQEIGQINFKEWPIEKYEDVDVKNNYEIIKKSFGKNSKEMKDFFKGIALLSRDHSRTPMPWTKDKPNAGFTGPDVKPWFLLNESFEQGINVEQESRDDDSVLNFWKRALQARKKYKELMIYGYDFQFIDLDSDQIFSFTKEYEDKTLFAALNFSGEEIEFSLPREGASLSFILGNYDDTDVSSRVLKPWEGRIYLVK
Chain of α-Galactosidase from green coffee beans (Q42656 16-378): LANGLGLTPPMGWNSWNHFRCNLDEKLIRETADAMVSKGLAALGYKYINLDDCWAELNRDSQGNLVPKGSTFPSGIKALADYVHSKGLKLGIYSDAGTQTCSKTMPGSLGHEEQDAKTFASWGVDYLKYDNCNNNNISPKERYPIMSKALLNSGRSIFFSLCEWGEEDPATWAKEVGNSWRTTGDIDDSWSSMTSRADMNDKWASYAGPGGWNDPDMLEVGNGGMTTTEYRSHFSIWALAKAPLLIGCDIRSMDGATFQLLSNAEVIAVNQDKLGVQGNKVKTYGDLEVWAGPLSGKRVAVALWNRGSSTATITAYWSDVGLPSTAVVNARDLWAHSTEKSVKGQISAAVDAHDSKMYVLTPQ

inhibition at 1000 µM [1]	Percentage inhibition (%) at 1 mM concentration of the inhibitor [2]	inhibition as stated in text [3]	inhibition as stated in text [4]	inhibition at 1000 µM [4]	inhibition as stated in text [5]	inhibition at 1000 µM ([5]; pH 6.8, read-out: Percentage inhibition (%) at 1 mM concentration of the inhibitor)	inhibition as stated in text [6]	inhibition at 1000 µM ([6]; pH 7.2, read-out: Percentage inhibition (%) at 1 mM concentration of the inhibitor)	Compound
41.1%	12.3%	could inhibit	–	–	–	–	–	–	O=C1CC=C(CO)[C@@H](O)[C@H](O)[C@@H]1O [Compound 4, (5R,6S,7S)-5,6,7-Trihydroxy-4-(hydroxymethyl)cyclohept-3-enone]
3.3%	–	–	inhibited	12.5%	–	–	–	–	OCC1=CC[C@H](O)[C@@H](O)[C@@H](O)[C@@H]1O [Compound 5, (1S,2R,3S,4R)-5-(Hydroxymethyl)cyclohept-5-ene-1,2,3,4-tetraol]
22.1%	3.2%	–	–	–	inhibited	41.7%	–	–	OCC1=CC[C@@H](O)[C@@H](O)[C@@H](O)[C@@H]1O [Compound 6, (1R,2R,3S,4R)-5-(Hydroxymethyl)cyclohept-5-ene-1,2,3,4-tetraol]
19.5%	14.1%	–	inhibited	10.6%	–	–	–	–	C[C@H]1CC[C@@H](O)[C@@H](O)[C@@H](O)[C@@H]1O [Compound 15, (1R,2R,3S,4R,5S)-5-Methylcycloheptane-1,2,3,4-tetraol]
–	29.8%	–	inhibited	35.1%	–	–	inhibits	12.8%	C[C@@H]1CC[C@@H](O)[C@@H](O)[C@@H](O)[C@@H]1O [Compound 16, (1R,2R,3S,4R,5R)-5-Methylcycloheptane-1,2,3,4-tetraol]

Reference: article PMC8698521 (RSC Advances, 2021)
